Reference: PubChem BioAssay (NCI)
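Dose response: 5 concentrations. Exposure: 48 h. Format: 96-well plates. Endpoint: linear interpolation; highest concentration if not reached. Here, GI50 denotes the concentration required for 50% inhibition of growth. TGI marks complete inhibition of growth.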

What was measured:
Assay in all cases: NCI tumour cell line growth inhibition, 48 h
OVCAR-3 ovarian = system: OVCAR-3 ovarian
HS 578T breast = system: HS 578T breast
SNB-19 CNS = system: SNB-19 CNS
OVCAR-4 ovarian = system: OVCAR-4 ovarian
SNB-75 CNS = system: SNB-75 CNS
SF-295 CNS = system: SF-295 CNS
786-0 renal = system: 786-0 renal
KM12 colon = system: KM12 colon
MDA-MB-231 breast = system: MDA-MB-231 breast
SK-MEL-2 melanoma = system: SK-MEL-2 melanoma
MDA-MB-435 = system: MDA-MB-435
HCT-15 colon = system: HCT-15 colon
NCI/ADR-RES ovarian = system: NCI/ADR-RES ovarian
NCI-H460 lung = system: NCI-H460 lung
SK-OV-3 ovarian = system: SK-OV-3 ovarian
IGROV1 ovarian = system: IGROV1 ovarian
RPMI-8226 leukemia = system: RPMI-8226 leukemia
SR leukemia = system: SR leukemia
M14 melanoma = system: M14 melanoma
HCC-2998 colon = system: HCC-2998 colon
SK-MEL-28 melanoma = system: SK-MEL-28 melanoma
A549 NSCLC = system: A549 NSCLC
A498 renal = system: A498 renal
BT-549 breast = system: BT-549 breast
OVCAR-5 ovarian = system: OVCAR-5 ovarian
SF-268 CNS = system: SF-268 CNS
NCI-H23 lung = system: NCI-H23 lung
HOP-92 NSCLC = system: HOP-92 NSCLC
LOX IMVI melanoma = system: LOX IMVI melanoma
T-47D breast = system: T-47D breast
UO-31 renal = system: UO-31 renal
NCI-H522 lung = system: NCI-H522 lung
HCT-116 colon = system: HCT-116 colon
PC-3 prostate = system: PC-3 prostate
U251 CNS = system: U251 CNS
HOP-62 NSCLC = system: HOP-62 NSCLC
OVCAR-8 ovarian = system: OVCAR-8 ovarian
MCF7 breast = system: MCF7 breast
SF-539 CNS = system: SF-539 CNS
RXF 393 renal = system: RXF 393 renal
ACHN renal = system: ACHN renal
CAKI-1 renal = system: CAKI-1 renal
UACC-62 melanoma = system: UACC-62 melanoma
NCI-H226 lung = system: NCI-H226 lung
EKVX NSCLC = system: EKVX NSCLC
CCRF-CEM leukemia = system: CCRF-CEM leukemia
SW-620 colon = system: SW-620 colon
MALME-3M melanoma = system: MALME-3M melanoma
SN12C renal = system: SN12C renal
COLO 205 colon = system: COLO 205 colon
MOLT-4 leukemia = system: MOLT-4 leukemia
HT29 colon = system: HT29 colon
DU-145 prostate = system: DU-145 prostate
K-562 leukemia = system: K-562 leukemia
HL-60(TB) leukemia = system: HL-60(TB) leukemia
SK-MEL-5 melanoma = system: SK-MEL-5 melanoma
TK-10 renal = system: TK-10 renal
UACC-257 melanoma = system: UACC-257 melanoma
MDA-N = system: MDA-N

Molecule `CCS(=O)(=O)c1ccc(OC)c(Nc2ncc(-c3cccc(-c4ccccc4F)c3)o2)c1` has a GI50 (OVCAR-3 ovarian) of 15.7 µM, a TGI (OVCAR-3 ovarian) greater than 25 µM and a GI50 (HS 578T breast) of 3.63 µM. The TGI (HS 578T breast) was 15.8 µM, the GI50 (SNB-19 CNS) was greater than 17.2 µM and the TGI (SNB-19 CNS) was greater than 25 µM. The GI50 (OVCAR-4 ovarian) was 3.79 µM, the TGI (OVCAR-4 ovarian) was greater than 25 µM and the GI50 (SNB-75 CNS) was 4.77 µM. It also gave a TGI (SNB-75 CNS) of 24.3 µM, a GI50 (SF-295 CNS) of 10.1 µM and a TGI (SF-295 CNS) greater than 25 µM. The GI50 (786-0 renal) was 20.3 µM, the TGI (786-0 renal) was greater than 25 µM and the GI50 (KM12 colon) was 0.833 µM. The TGI (KM12 colon) was greater than 25 µM, the GI50 (MDA-MB-231 breast) was 14.1 µM and the TGI (MDA-MB-231 breast) was greater than 25 µM. For the same molecule, the GI50 (SK-MEL-2 melanoma) was greater than 25 µM, the TGI (SK-MEL-2 melanoma) was greater than 25 µM and the GI50 (MDA-MB-435) was greater than 25 µM. For the same molecule, the TGI (MDA-MB-435) was greater than 25 µM, the GI50 (HCT-15 colon) was 16.8 µM and the TGI (HCT-15 colon) was greater than 25 µM. The GI50 (NCI/ADR-RES ovarian) was 15.4 µM, the TGI (NCI/ADR-RES ovarian) was greater than 25 µM and the GI50 (NCI-H460 lung) was greater than 25 µM. For the same molecule, the TGI (NCI-H460 lung) was greater than 25 µM, the GI50 (SK-OV-3 ovarian) was 5.1 µM and the TGI (SK-OV-3 ovarian) was 14.3 µM. For the same molecule, the GI50 (IGROV1 ovarian) was 6.1 µM, the TGI (IGROV1 ovarian) was 20.7 µM and the GI50 (RPMI-8226 leukemia) was 23.9 µM. For the same molecule, the TGI (RPMI-8226 leukemia) was greater than 25 µM, the GI50 (SR leukemia) was greater than 25 µM and the TGI (SR leukemia) was greater than 25 µM. The GI50 (M14 melanoma) was greater than 25 µM, the TGI (M14 melanoma) was greater than 25 µM and the GI50 (HCC-2998 colon) was greater than 25 µM. The TGI (HCC-2998 colon) was greater than 25 µM, the GI50 (SK-MEL-28 melanoma) was greater than 25 µM and the TGI (SK-MEL-28 melanoma) was greater than 25 µM. The GI50 (A549 NSCLC) was greater than 25 µM, the TGI (A549 NSCLC) was greater than 25 µM and the GI50 (A498 renal) was 1.07 µM. The TGI (A498 renal) was 7.54 µM, the GI50 (BT-549 breast) was greater than 22.2 µM and the TGI (BT-549 breast) was greater than 25 µM. For the same molecule, the GI50 (OVCAR-5 ovarian) was 13 µM, the TGI (OVCAR-5 ovarian) was greater than 25 µM and the GI50 (SF-268 CNS) was 15.1 µM. For the same molecule, the TGI (SF-268 CNS) was greater than 25 µM, the GI50 (NCI-H23 lung) was greater than 23.8 µM and the TGI (NCI-H23 lung) was greater than 25 µM. It also gave a GI50 (HOP-92 NSCLC) of 3.16 µM, a TGI (HOP-92 NSCLC) of 20.7 µM and a GI50 (LOX IMVI melanoma) of 15.1 µM. The TGI (LOX IMVI melanoma) was greater than 25 µM, the GI50 (T-47D breast) was 6.45 µM and the TGI (T-47D breast) was greater than 25 µM. For the same molecule, the GI50 (UO-31 renal) was 1.48 µM, the TGI (UO-31 renal) was 20.3 µM and the GI50 (NCI-H522 lung) was 10.6 µM. It also gave a TGI (NCI-H522 lung) greater than 25 µM, a GI50 (HCT-116 colon) greater than 22.9 µM and a TGI (HCT-116 colon) greater than 25 µM. For the same molecule, the GI50 (PC-3 prostate) was 15.5 µM, the TGI (PC-3 prostate) was greater than 25 µM and the GI50 (U251 CNS) was 12.1 µM. The TGI (U251 CNS) was greater than 25 µM, the GI50 (HOP-62 NSCLC) was greater than 19.9 µM and the TGI (HOP-62 NSCLC) was greater than 25 µM. The GI50 (OVCAR-8 ovarian) was greater than 25 µM, the TGI (OVCAR-8 ovarian) was greater than 25 µM and the GI50 (MCF7 breast) was greater than 21 µM. It also gave a TGI (MCF7 breast) greater than 25 µM, a GI50 (SF-539 CNS) of 7.81 µM and a TGI (SF-539 CNS) greater than 25 µM. The GI50 (RXF 393 renal) was 2.45 µM, the TGI (RXF 393 renal) was greater than 17.9 µM and the GI50 (ACHN renal) was 13.1 µM. It also gave a TGI (ACHN renal) greater than 25 µM, a GI50 (CAKI-1 renal) of 10.8 µM and a TGI (CAKI-1 renal) greater than 25 µM. For the same molecule, the GI50 (UACC-62 melanoma) was greater than 25 µM, the TGI (UACC-62 melanoma) was greater than 25 µM and the GI50 (NCI-H226 lung) was 2.24 µM. It also gave a TGI (NCI-H226 lung) greater than 25 µM, a GI50 (EKVX NSCLC) of 7.89 µM and a TGI (EKVX NSCLC) greater than 25 µM. For the same molecule, the GI50 (CCRF-CEM leukemia) was greater than 25 µM, the TGI (CCRF-CEM leukemia) was greater than 25 µM and the GI50 (SW-620 colon) was greater than 25 µM. The TGI (SW-620 colon) was greater than 25 µM, the GI50 (MALME-3M melanoma) was greater than 25 µM and the TGI (MALME-3M melanoma) was greater than 25 µM. The GI50 (SN12C renal) was 14.8 µM, the TGI (SN12C renal) was greater than 25 µM and the GI50 (COLO 205 colon) was greater than 20.1 µM. The TGI (COLO 205 colon) was greater than 25 µM, the GI50 (MOLT-4 leukemia) was greater than 25 µM and the TGI (MOLT-4 leukemia) was greater than 25 µM. The GI50 (HT29 colon) was 15 µM, the TGI (HT29 colon) was greater than 25 µM and the GI50 (DU-145 prostate) was greater than 25 µM. For the same molecule, the TGI (DU-145 prostate) was greater than 25 µM, the GI50 (K-562 leukemia) was 5.75 µM and the TGI (K-562 leukemia) was greater than 25 µM. It also gave a GI50 (HL-60(TB) leukemia) greater than 25 µM, a TGI (HL-60(TB) leukemia) greater than 25 µM and a GI50 (SK-MEL-5 melanoma) greater than 14.6 µM. It also gave a TGI (SK-MEL-5 melanoma) greater than 25 µM, a GI50 (TK-10 renal) of 7.32 µM and a TGI (TK-10 renal) greater than 25 µM. It also gave a GI50 (UACC-257 melanoma) greater than 25 µM and a TGI (UACC-257 melanoma) greater than 25 µM.
Molecule `CC(=O)OC[C@@]12CC[C@H]3C(C)(C)CCC[C@]3(C)[C@H]1C[C@@H](C1=CC(=O)O[C@H]1O)O2` has a TGI (OVCAR-3 ovarian) of 3.99 µM, a TGI (HS 578T breast) of 17 µM and a TGI (SNB-19 CNS) of 37.2 µM. For the same molecule, the TGI (SF-295 CNS) was 21.3 µM, the TGI (786-0 renal) was 3.32 µM and the TGI (KM12 colon) was 35.8 µM. For the same molecule, the TGI (SK-MEL-2 melanoma) was 4.37 µM, the TGI (MDA-MB-435) was 4.6 µM and the TGI (HCT-15 colon) was 5.15 µM. The TGI (NCI/ADR-RES ovarian) was 16.1 µM, the TGI (NCI-H460 lung) was 29 µM and the TGI (IGROV1 ovarian) was 5.78 µM. For the same molecule, the TGI (RPMI-8226 leukemia) was 7.27 µM, the TGI (SR leukemia) was 4.08 µM and the TGI (M14 melanoma) was 7.65 µM. It also gave a TGI (HCC-2998 colon) of 3.12 µM, a TGI (SK-MEL-28 melanoma) of 4.36 µM and a TGI (A549 NSCLC) of 20.4 µM. For the same molecule, the TGI (MDA-N) was 5.53 µM, the TGI (OVCAR-5 ovarian) was 37.8 µM and the TGI (SF-268 CNS) was 28.1 µM. The TGI (NCI-H23 lung) was 5.01 µM, the TGI (LOX IMVI melanoma) was 3.42 µM and the TGI (T-47D breast) was 8.67 µM. For the same molecule, the TGI (UO-31 renal) was 4.95 µM, the TGI (NCI-H522 lung) was 8.03 µM and the TGI (HCT-116 colon) was 9.07 µM. It also gave a TGI (PC-3 prostate) of 17.4 µM, a TGI (HOP-62 NSCLC) of 23 µM and a TGI (OVCAR-8 ovarian) of 13.7 µM. For the same molecule, the TGI (MCF7 breast) was 11.2 µM, the TGI (SF-539 CNS) was 5.28 µM and the TGI (ACHN renal) was 5.12 µM. It also gave a TGI (CAKI-1 renal) of 5.21 µM, a TGI (UACC-62 melanoma) of 4.74 µM and a TGI (EKVX NSCLC) of 24.3 µM. It also gave a TGI (CCRF-CEM leukemia) of 3.62 µM, a TGI (SW-620 colon) of 19.9 µM and a TGI (SN12C renal) of 12.4 µM. The TGI (COLO 205 colon) was 10.4 µM, the TGI (MOLT-4 leukemia) was 6.23 µM and the TGI (HT29 colon) was 7.71 µM. For the same molecule, the TGI (DU-145 prostate) was 20.4 µM, the TGI (K-562 leukemia) was 3.56 µM and the TGI (SK-MEL-5 melanoma) was 9.08 µM. For the same molecule, the TGI (TK-10 renal) was 12 µM and the TGI (UACC-257 melanoma) was 9.26 µM.
